61 compounds from article PMC12040169 (PLOS Biology, 2025) can be followed below.

The nature of the data set: in vitro. The conditions noted are these: human, hela cells, % viability.
As for `CN(C)Cc1ccccc1Cn1cncc1-c1cnn(C)c1` [CBK281764], the viability at 28.5 h, 10 µM was found to be 99.5%. Consider `Cc1cccc(C2(Cn3cncc3-c3cnn(C)c3)CCOCC2)c1` [CBK281765], for which the viability at 28.5 h, 10 µM turned out to be 79%. For `Cc1cccc(OCCCn2cncc2-c2cn(C)nc2C)c1` [CBK281766], the viability at 28.5 h, 10 µM was 90%. In the case of `CCn1cc(-c2cncn2CCCN2CCCCC2)cn1` [CBK281767] it was 82.9%.

Take `CCn1cc(-c2cncn2CCCn2nc(C)cc2C)cn1` [CBK281770]: the viability at 28.5 h, 10 µM was 97.1%. Turning to `Cc1cc(C)n(CCCn2cncc2-c2cn(C)nc2C)n1` [CBK281772], the viability at 28.5 h, 10 µM was 94.8%. In the case of `CCn1cc(-c2cncn2CC(C)n2nc(C)cc2C)cn1` (stereo not shown) [CBK281775] it was 87.1%; in that of `CCn1cc(-c2cncn2CCOc2ccc(Cl)cc2)cn1` [CBK281776], 81.8%; in that of `CCn1nc(C)c(-c2cncn2CC(C)n2nc(C)cc2C)c1C` (stereo not shown) [CBK281777], 109%. For the compound `COc1ccc2[nH]c(-c3cncn3CCCC(C)(C)CO)cc2c1` [CBK281778], the viability at 28.5 h, 10 µM worked out at 90.9%. In the case of `Cc1nn(C)cc1-c1cncn1CCN(C)C1CCCC1` [CBK281780], the viability at 28.5 h, 10 µM amounted to 95.8%.

As for `CCn1nc(C)c(-c2cncn2CCn2nc(C)c(C)c2C)c1C` [CBK281782], the viability at 28.5 h, 10 µM stood at 98.8%. The figure for `Cc1nn(C)cc1-c1cncn1CCn1nc(C)c(C)c1C` [CBK281785] is 108%; for `Cc1nn(C)cc1-c1cncn1C(C)Cc1c(C)nn(C)c1C` (stereo not shown) [CBK281786] it is 115%; for `Cc1nn(C)cc1-c1cncn1CCCOc1ccc(Cl)cc1` [CBK281787] it is 87.5%. The figure for `Cc1nn(C)c(C)c1CCn1cncc1-c1ccc2c(c1)CC(C)N2C` (stereo not shown) [CBK281788] is 76%; for `CCCn1nc(C)c(-c2cncn2CCN(C)C2CCCC2)c1C` [CBK281790] it is 91.3%.

For the compound `CCCn1nc(C)c(-c2cncn2CC(C)N2CCC(C)CC2)c1C` (stereo not shown) [CBK281791], the viability at 28.5 h, 10 µM was 85.2%. The figure for `Cc1cc(C)n(C(C)Cn2cncc2-c2cn(C)nc2C)n1` (stereo not shown) [CBK281792] is 102%; for `CCCn1nc(C)c(-c2cncn2CC(C)n2nc(C)cc2C)c1C` (stereo not shown) [CBK281793] it is 103%; for `Cc1ccc2c(C)c(-c3cncn3C(C)CN3CCOCC3)oc2c1` (stereo not shown) [CBK281796] it is 107%.

As to `Cc1nn(C)cc1-c1cncn1Cc1ccc2c(c1)CCCO2` [CBK281797], the viability at 28.5 h, 10 µM was found to be 90.4%. As to `Cc1nn(C)cc1-c1cncn1C(C)c1ccc2c(c1)CCCO2` (stereo not shown) [CBK281798], the viability at 28.5 h, 10 µM came to 100%. Consider `Cc1nn(C)cc1-c1cncn1CC1(N(C)C)CCC(C)CC1` (stereo not shown) [CBK281799], for which the viability at 28.5 h, 10 µM was 88.9%. In the case of `CCC(CN1CCOCC1)n1cncc1-c1[nH]c2ccccc2c1C` (stereo not shown) [CBK281800] it was 106%. The figure for `CN(C)CC(=O)N1CCc2nc(-c3cccc(F)c3)sc2C1` [CBK281801] is 106%; for `Cc1nc2ccccn2c1CN1CCC(Oc2ccc(F)cc2)CC1` [CBK281803] it is 90.1%; for `Cc1cc(C)n(C2CCN(Cc3cnn(C4CCCCC4)c3)CC2)n1` [CBK281804] it is 89.2%. In the case of `CCn1nc(C)c(-c2cncn2CC(C)N2CCCCC2)c1C` (stereo not shown) [CBK281808], the viability at 28.5 h, 10 µM came to 102%.

For the compound `CCN1CCCc2cc(-c3cncn3CCCn3ccnc3C)ccc21` [CBK281810], the viability at 28.5 h, 10 µM was found to be 109%. Take `Cc1ccccc1OCCCn1cncc1-c1cn(C)nc1C` [CBK281813]: the viability at 28.5 h, 10 µM was 85.1%. On to `CC12CCC(=O)N1CCCN2Cc1cnn(-c2ccc(F)cc2)c1` (stereo not shown) [CBK281819], for which the viability at 28.5 h, 10 µM is 94.2%. Take `Cc1cc(=O)n(CC(=O)NC(C)c2ccccn2)c2ccccc12` (stereo not shown) [CBK281820]: the viability at 28.5 h, 10 µM is 96.3%. On to `Cc1nc2cc(C(=O)NC(C)c3ccccn3)ccc2n1C` (stereo not shown) [CBK281822], for which the viability at 28.5 h, 10 µM is 84.2%.

Consider `Cc1oc2c(c1C(=O)NC(C)c1ccccn1)CCCC2` (stereo not shown) [CBK281825], for which the viability at 28.5 h, 10 µM is 109%. The figure for `Cc1cc(C)n(CCCN(C)Cc2ccc(N3CCCC3=O)cc2)n1` [CBK281827] is 88.3%. `CCn1c(C)nc2cc(NC(=O)Cn3cccn3)ccc21` [CBK281828]: the viability at 28.5 h, 10 µM is 89.5%. Take `O=C(Cn1cccn1)Nc1ccc2c(c1)CN(Cc1ccccc1)C2` [CBK281829]: the viability at 28.5 h, 10 µM is 85.6%. As to `CCn1c(C)nc2cc(NC(=O)c3c4c(nn3C)CCCC4)ccc21` [CBK281831], the viability at 28.5 h, 10 µM came out at 93.8%. Turning to `CCn1c(C)nc2cc(NC(=O)Cn3cnc4ccccc43)ccc21` [CBK281832], the viability at 28.5 h, 10 µM is 94.1%. In the case of `Cc1nc(C)c(C(=O)Nc2ccc3c(c2)CN(Cc2ccccc2)C3)o1` [CBK281835] it was 91.2%; in that of `CCn1c(C)nc2cc(NC(=O)c3cnn(C)c3)ccc21` [CBK281837], 86.1%; in that of `Cn1cc(C(=O)Nc2ccc3c(c2)CN(Cc2ccccc2)C3)cn1` [CBK281838], 94.8%. `O=C(Cn1cccn1)N1CCc2[nH]c3ccccc3c2C1` [CBK281839]: the viability at 28.5 h, 10 µM was determined as 92.6%. In the case of `O=C(COCc1nc2ccccc2[nH]1)N1CCC(c2ccccc2)C1` (stereo not shown) [CBK281840] it was 97.7%; in that of `Cc1nc2cc(C(=O)N3CCC(c4ccccc4)C3)ccc2n1C` (stereo not shown) [CBK281841], 66.5%; in that of `O=C(Cn1ncc2ccccc2c1=O)N1CCC(c2ccccc2)C1` (stereo not shown) [CBK281843], 90.7%. In the case of `Cn1nc2c(c1C(=O)N1CCc3[nH]c4ccccc4c3C1)CCCC2` [CBK281844] it was 79.7%; in that of `CCN1CCC(CC(=O)N2CCc3[nH]c4ccccc4c3C2)CC1` [CBK281846], 86.5%. For `O=C(c1cc(-c2cccnc2)[nH]n1)N1CCC(c2ccccc2)C1` (stereo not shown) [CBK281849], the viability at 28.5 h, 10 µM was determined as 101%. For the compound `O=C(c1n[nH]c2c1CCC2)N1CCC(c2ccccc2)C1` (stereo not shown) [CBK281851], the viability at 28.5 h, 10 µM turned out to be 87.9%. `Cc1noc(C)c1CC(=O)N(C)CCN1CCCCC1` [CBK281855]: the viability at 28.5 h, 10 µM turned out to be 88.8%.

Regarding `Cc1nccn1CCNC(=O)c1c2c(nn1C)CCCC2` [CBK281857], the viability at 28.5 h, 10 µM was 100%. With `Cc1ccc(C2(C(=O)NCCn3ccnc3C)CCOCC2)cc1` [CBK281858], the viability at 28.5 h, 10 µM was 95%.

For the compound `Cc1noc(C)c1CC(=O)NCC(C)(C)N1CCCCC1` [CBK281863], the viability at 28.5 h, 10 µM amounted to 90.3%. In the case of `CN(C)Cc1ccc(C(=O)NCC(C)(C)N2CCCCC2)cc1` [CBK281865], the viability at 28.5 h, 10 µM was 104%. The figure for `Cc1nc(C)c(C(=O)NCC(C)(C)N2CCCCC2)o1` [CBK281866] is 94.2%. In the case of `CCN(C(=O)c1cc2ccc(N(C)C)cc2[nH]1)C1CCN(C)CC1` [CBK281867], the viability at 28.5 h, 10 µM was found to be 79.8%.

On to `Cc1nccn1CCC1CCN(C(=O)c2cn3ccccc3n2)CC1` [CBK281868], for which the viability at 28.5 h, 10 µM came to 91.2%. The figure for `O=C(c1cc2c([nH]1)CCCC2)N1CCC(CCN2CCOCC2)CC1` [CBK281869] is 88.9%; for `CCN(C(=O)Cn1c(=O)cc(C)c2ccccc21)C1CCN(C)CC1` [CBK281871] it is 86.8%.

Broadly, the viability is a read-out of living cells in per cent, often relative to untreated cells.
